# “Also recorded” adds a separate entry of the source. Where two headings read alike, the source gives them in different places.
# Experiments:
# [1] = system: rat sciatic nerve; experiment: Sensory block of rat sciatic nerve in vivo (nocifensive withdrawal reflex to pinch of the foot pad); set-up: species or system Male Sprague-Dawley rats; conditions: for fraction block, SENSORY / duration, SENSORY / onset, SENSORY: 0.1 ml; for duration, SENSORY / onset, SENSORY: mean ± SEM
# Description: (§1) Male Sprague-Dawley rats (200-250 g) were divided into 4 groups of 10 each. 0.1 ml of VTD alone at 0.2, 0.5 or 0.7 mM or vehicle (saline) was injected at the depression between the femoral head and the hip. The same animals were injected with VTD with epinephrine (EPI, 1:200,000) one week later, using the previously uninjected leg. Motor and sensory functions were rated by the respective monitoring of toe curling and/or foot dragging, and by testing the nocifensive withdrawal reflex to pinch of the foot pad of the injected hindlimb. Saline alone affected neither function.
# [2] = system: C-fibers of rabbit vagus nerve; experiment: Extracellular recording of compound action potentials (APc), desheathed vagus nerve, C-fibers; set-up: species or system New Zealand white rabbit; conditions: for inhibition at 0.5 µM: 1 h, mean ± SEM; for inhibition at 0.5 µM / activity at 0.5 µM: 0.5 μM VTD; for activity at 0.5 µM: read-out: Amplitude of single APc elevation relative to amplitude at beginning of VTD exposure
# Description: Adult male New Zealand white rabbits (3±0.5 kg) were pretreated intramuscularly with a mixture of ketamine (200 mg), xylazine (20 mg) and atropine (0.4 mg) for sedation. Ten minutes after this treatment, the animals were anesthetized with diethyl ether. After cessation of respiration, a longitudinal skin incision was made, and the cervical portion of both vagus nerves was dissected. The vagus nerves were temporarily stored at room temperature (22° C.) in a beaker containing modified HEPES Liley (HL) solution stirred constantly by aeration with a mixture of 95% oxygen and 5% carbon dioxide.
# The modified HL solution used for bathing the nerve and subsequent drug perfusion consisted of (in mM): NaCl, 118.0; KCl, 5.0; CaCl2 2H2 0, 2.0; MgCl2 6H2 0, 1.0; α-D(+)-glucose, 11.0; NaHC03, 25.0; and N-2-hydroxy-ethylpiperazine-N-2-ethanesulfonic acid (HEPES) buffer, 5.0 mM. The pH was adjusted to 7.4±0.05 by addition of 1 N NaOH. The perfusion solution was bubbled with a gas mixture of 95% oxygen and 5% carbon dioxide at a vigorous rate just before flowing onto the nerve. The pH was stabilized by the HEPES buffer and maintained at 7.4.
# VTD free base (no. V-5754, lot 58F-7828, Sigma, St. Louis, Mo.) was stored in a desiccator below 0° C. and was used to prepare a 2 mM stock solution in dimethyl sulfoxide [DMSO], Fisher Scientific, lot 861316), which also was stored at below 0° C. VTD, a steroidal alkaloid (FIG. 2A) that is produced by certain lilies, has a solubility limited to approximately 10^-3 M in aqueous slat solutions [Kupchan and By, "The Veratrum Group," in Alkaloids, Vol. 10, Manske, R.H.F. (ed.), New York, Academic Press (1968), pp. 193-285]. The stock VTD solution was diluted to final concentrations of 0.2-10 μM by the addition of HL. The maximum equivalent content of DMSO is 0.5%, and in three control experiments we detected no change in electrophysiologic behavior with 1% DMSO.
# The nerves were cleaned and desheathed by microdissection before mounting in an airtight chamber (FIG. 2B) [Gissen et al., Anesthesiology 53:467-474 (1980)]. Petroleum jelly (White Petrolatum, Denison Laboratories) seals separated a central, 11-mm length of the nerve from the lateral pools, used for stimulating and recording with electrodes made of platinum wire. The central section of the chamber (volume 0.25 ml) was perfused with HL solution at 0.5 ml.min.^-1. The lateral pools containing the moistened ends of the nerves adsorbed to the electrodes were filled with paraffin oil. The APc s were propagated over 21 mm, from the stimulating to the recording electrodes, with the proximal recording electrodc located 4.5 mm from the edge of the central, drug exposure chamber. Thus, measured APc s were conducted in nerve exposed to drug for half of the conduction pathway, and had been conducting through drug-free medium over a distance containing at least two or three nodes of Ranvier (in the fastest-conducting fibers), before reaching the recording electrodes.
# The signal from the nerve was amplified 50 times (model AK 475 operational amplifier, Metametrics, Carlisle, Mass.) and passed to the oscilloscope preamplifiers (model 5A 22N, Tektronix). The preparation was not considered acceptable unless the APc signals from the nerve exceeded 1.5 mV for A-fibers, 0.5 mV for B-fibers, and 0.3 mV for C-fibers.
# Each nerve was exposed to only one VTD concentration, and each concentration was tested in four or five separate nerves, except in tie sheathed nerves, for which only two nerves were used. The temperature was 20°-22° C.
# The standard protocol used for testing the action of VTD was to record the APc elevations in control HL solution for 30-60 min. before adding VTD; for 60-75 min. during VTD application; and for 60-75 min. after replacement with VTD-free HL. […]
# [3] = Toxic signs (salivation) in rats after sciatic nerve injection; format: in vivo, Male Sprague-Dawley rats; conditions: for fraction salivating: 0.1 ml
# Description: as §1
# [4] = on average; cited from earlier work
smiles,measurement,setting,value
"COc1ccc(C(=O)OC2CCC3(C)C4CCC5C6(O)CC(O)C7(O)C(CN8CC(C)CCC8C7(C)O)C6(O)CC53OC24O)cc1OC (stereo not drawn) [VTD, veratridine]",Frequency of sensory block (summary),"[1]; VTD alone, vs motor block",less frequently
same,"fraction block, SENSORY",[1]; [VTD] 0.2 mM,1/10
same,"duration, SENSORY",[1]; [VTD] 0.2 mM,51 min
same,"onset, SENSORY",[1]; [VTD] 0.2 mM,13 min
same,"fraction block, SENSORY",[1]; [VTD] 0.5 mM,2/10
same,"duration, SENSORY",[1]; [VTD] 0.5 mM,224 ± 44 min
same,"onset, SENSORY",[1]; [VTD] 0.5 mM,3 ± 1 min
same,"fraction block, SENSORY",[1]; [VTD] 0.7 mM,4/10
same,"duration, SENSORY",[1]; [VTD] 0.7 mM,115 ± 1 min
same,"onset, SENSORY",[1]; [VTD] 0.7 mM,10 ± 2 min
same,Block of nocifensive reflexes compared with bupivacaine and lidocaine,[1]; rat sciatic nerve,blocked less predictably
same,"Use-dependent reduction of APc by VTD, C-fibers","[2]; 0-2.0 μM (FIG. 7C), at relatively low frequencies",diminished most; also recorded: greatest for the C-fiber component
same,Use-dependent inhibition and slowing of C-fiber APc,"[2]; 2 μM VTD, 5 Hz, second through tenth APc, 15-20 min. exposure",slowed conduction and reduced amplitude
same,Single-stimulus APc after VTD compared with no-VTD controls,"[2]; C-fibers, 0.5 μM, 60 min. in VTD, P<0.005",significant enhancement
same,Longer latency of the second wave vs the first wave,"[2]; C-fibers, 2 μM VTD, 5 Hz (FIG. 6B)",about 20%
same,Reversal of use-dependent depression by washing,"[2]; C-fibers, VTD-free HL wash",partial reversal
same,Recovery time of APc after stimulation ceased,"[2]; C-fibers, sometimes as long as, depending on VTD concentration",1 to 2 min
same,inhibition at 0.5 µM,"[2]; Oryctolagus cuniculus, C-fibers, 10 Hz, after 60 min. in VTD, P < 0.001 vs control, read-out: Percent inhibition of the tenth APc in a train compared to the first, VTD",54.6 ± 3.8%
same,inhibition at 0.5 µM,"[2]; Oryctolagus cuniculus, C-fibers, 10 Hz, after 60 min. wash, read-out: Percent inhibition of the tenth APc in a train compared to the first, HL (Wash)",34.6 ± 3.8%
same,activity at 0.5 µM,"[2]; Oryctolagus cuniculus, C-fibers, during VTD exposure",111 ± 5%
same,activity at 0.5 µM,"[2]; Oryctolagus cuniculus, C-fibers, wash period",133 ± 15%
same,inhibition at 0.2 µM,"[2]; Oryctolagus cuniculus, 0.2 μM VTD, 10 Hz, after about 1 h of wash-out, read-out: C-fiber use-dependent inhibition after VTD wash-out",22%
same,"Toxic signs, including profuse salivation",[3]; 0.5 and 0.7 mM VTD alone,14/20
same,fraction salivating,[3]; [VTD] 0.2 mM,0/10
same,fraction salivating,[3]; [VTD] 0.5 mM,4/10
same,fraction salivating,[3]; [VTD] 0.7 mM,10/10
same,Fraction of drug molecules ionized,[4],more than 90%
